How the values were obtained:
[1] = test system: male patients suffering from BPH; assay: International Prostate Symptom Score (I-PSS) in phase II placebo-controlled study; type: in vivo, human
Description: (§1) A phase II randomised, double blind, placebo-controlled, multi-centre, multi national study was conducted in order to investigate the use of an Teverelix TFA formulation in the composition according to the invention. In said study the International Prostate Symptom Score (I-PSS), the prostate volume, the urinary flow rate and the testosterone level in males suffering from BPH were evaluated.
(§2) The Teverelix TFA formulation was reconstituted as follows. 0.8 ml 5% mannitol was added to 60 mg of the LHRH antagonist Teverelix trifluoroacetate. The mixture was stirred using vortex during one minute providing a dosage formulation of Teverelix TFA as a flowing milky pearly microcrystalline aqueous suspension. The suspension is made of microcrystals of about 10 μm length. Corresponding placebo formulations, without Teverelix TFA, were also prepared
(§3) Formulation A: 60 mg Teverelix TFA in 0.8 ml 5% mannitol
(§4) Two single injections of Formulation A and Formulation A-placebo was administered s.c. at an interval of 48 hours to 81 male patients (41 on A and 40 on A-placebo) suffering from BPH.
The International Prostate Symptom Score (I-PSS) is based on the answers to seven questions concerning urinary symptoms and one question concerning quality of life. Each question concerning urinary symptoms allows the patient to choose one out of six answers indicating increasing severity of the particular symptom. The answers are assigned points from 0 to 5. The total score can therefore range from 0 to 35 (asymptomatic to very symptomatic).

[2] = test system: male patients suffering from BPH; assay: Prostate volume in phase II placebo-controlled study; type: in vivo, human; conditions: two s.c. injections of 60 mg at an interval of 48 hours
Description: as §1, §2, §3, §4

[3] = test system: male patients suffering from BPH; assay: Urinary flow rate (Qmax) in phase II placebo-controlled study; type: in vivo, human; conditions: two s.c. injections of 60 mg at an interval of 48 hours
Description: as §1, §2, §3, §4

[4] = test system: male patients suffering from BPH; assay: Serum testosterone level in phase II placebo-controlled study; type: in vivo, human; conditions: two s.c. injections of 60 mg at an interval of 48 hours; FIG. 4
Description: as §1, §2, §3, §4

[5] = test system: male patients suffering from BPH; assay: Side effects with the use of Teverelix TFA; set-up: species or system human; conditions: in vivo
Description: as §1, §4

Q: How did the IPSS reduction ([1]; at 2 weeks) turn out when “N-Ac-d-Nal^1, d-pCl-Phe^2, d-Pal^3, d-(Hci)^6, Lys(iPr)^8, d-Ala^10 trifluoroacetate [Teverelix TFA]” was run?
A: Its IPSS reduction is 12.6%.

Q: What about the IPSS reduction ([1]; at 16 weeks) of the same substance?
A: Its IPSS reduction is 33.9%.

Q: And the “improvement in quality of life score (QoL)” value ([1]; at 16 weeks)?
A: Its value is 32.8%.

Q: What about the “time to improvement of symptoms (I-PSS)” value ([1]; two s.c. injections of 60 mg at an interval of 48 hours) of the same substance?
A: The value was “within two weeks”.

Q: What about the “improvement on I-PSS” value ([1]; two s.c. injections of 60 mg at an interval of 48 hours, 16-week study, FIG. 1) of the same substance?
A: Its value is 39.9%.

Q: What about the “time to prostate volume reduction after initiating therapy” value [2] of the same substance?
A: Its value is “within four weeks”.

Q: And the prostate volume decrease ([2]; FIG. 2)?
A: Its prostate volume decrease is 11.5%.

Q: And the “time to significant increase in the flow rate” value [3]?
A: The value was “within the first two weeks”.

Q: What about the “increase in maximum urinary flow rate (Qmax)” value ([3]; at 16 weeks) of the same substance?
A: The value was 43%.

Q: And the “reduction in the testosterone level” value [4]?
A: Its value is “immediate reduction”.

Q: And the “time for testosterone level to return to baseline levels” value [4]?
A: The value was “within eight weeks”.

Q: And the serious side effects [5]?
A: The serious side effects was “no serious side effects”.

— patent US20200129583A1, “COMPOSITION FOR TREATING ACUTE URINARY RETENTION” (ANTEV LIMITED, priority 2018, published 2020)
